Patent US6677329B1, “Non-aromatic estrogenic steroids with a hydrocarbon substituent in position 11” (Akzo Nobel N V., priority 1999, dated 2004)

Columns and labels:
[1] = molecular target: T1, human estrogen β receptor (hERβ) (Homo sapiens, UniProt Q92731); assay: competitive binding to cytoplasmic human estrogen receptor from recombinant CHO cells (β-binding); details: relative affinity (potency ratio), in percentage of the action of the reference compound in the assay; cytosol of recombinant CHO cells
T1 construct: expressed in transfected cells; host or cells: CHO cells with rat oxytocin promoter and luciferase reporter (no ERβ line named)
Method: (§1) Compounds are tested for their estrogen receptor activity in a binding assay and in a transactivation assay. Determination of competitive binding to cytoplasmic human estrogen receptor from rec.CHO cells is used to estimate the relative affinity (potency ratio) of a test compound for estrogen receptors present in the cytosol of recombinant Chinese hamster ovary (CHO) cells, stably transfected with the human estrogen receptor, as compared with estradiol (E2). Cytosol prepared from recombinant CHO cells, stably transfected with the human estrogen receptor. The cell line has been made within the Department of Biotechnology and Biochemistry (BBC) (N.V. Organon) and is known under the name CHO-ER (2B1). Reference compounds are ethinylestradiol and estriol. The data are expressed in percentage of the action of the reference compound in the assay

[2] = molecular target: T2, human estrogen receptor α (hERα) (Homo sapiens, UniProt P03372); assay: transactivation assay in recombinant CHO cells (rat oxytocin promoter, luciferase reporter), α; assay type: cell-based; details: potency ratio, in percentage of the action of the reference compound in the assay
T2 construct: expressed in transfected cells; host or cells: CHO cells, line CHO-ERRO 2B1-1E9, with rat oxytocin promoter and luciferase reporter
T2 sequence (P03372 1-595): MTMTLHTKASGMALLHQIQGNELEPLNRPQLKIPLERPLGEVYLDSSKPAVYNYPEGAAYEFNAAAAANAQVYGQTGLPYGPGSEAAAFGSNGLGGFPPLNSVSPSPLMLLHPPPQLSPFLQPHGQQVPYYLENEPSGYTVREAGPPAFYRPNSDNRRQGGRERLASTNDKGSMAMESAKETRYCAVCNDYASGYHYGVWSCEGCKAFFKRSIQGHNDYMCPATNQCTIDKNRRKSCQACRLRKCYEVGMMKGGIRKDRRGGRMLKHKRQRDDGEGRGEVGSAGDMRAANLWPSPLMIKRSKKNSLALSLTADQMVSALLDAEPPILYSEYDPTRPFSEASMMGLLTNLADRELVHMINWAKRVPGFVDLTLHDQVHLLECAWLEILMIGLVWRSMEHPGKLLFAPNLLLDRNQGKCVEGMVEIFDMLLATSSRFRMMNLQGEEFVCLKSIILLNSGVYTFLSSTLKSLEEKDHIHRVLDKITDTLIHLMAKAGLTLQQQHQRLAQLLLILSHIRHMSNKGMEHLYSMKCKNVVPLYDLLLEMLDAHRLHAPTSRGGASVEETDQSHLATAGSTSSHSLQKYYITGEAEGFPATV
Method: (§2) Compounds are tested for their estrogen receptor activity in a binding assay and in a transactivation assay.
(§3) The antiestrogenic activity of compounds is determined in an in vitro bioassay with recombinant Chinese hamster ovary (CHO) cells stably co-transfected with the human estrogen receptor α (hERα) or β receptor (hERβ), the rat oxytocin promoter (RO) and the luciferase reporter gene (LUC). The antiestrogenic activity (potency ratio) of a test compound to inhibit the transactivation of the enzyme luciferase mediated via the estrogen receptor by the estrogen Org 2317 (estradiol, 1, 3, 5 (10)-estratriene-3,17β-diol) is compared with the standard Org 34790 (ICI 164.384; (7α,17β)-N-butyl-3,17-dihydroxy-N-methylestra-1,3,5 (10)-triene-7-undecanamide).
(§4) Test medium: Intact recombinant CHO cells stably co-transfected with the human estrogen receptor, the rat oxytocin promoter and the luciferase reporter gene. The cell line has been produced within the Department of Biotechnology and Biochemistry (BBC) (N.V. Organon) and is known under the name CHO-ERRO 2B1-1E9.
(§5) The data are expressed in percentage of the action of the reference compound in the assay

[3] = molecular target: T2, human estrogen receptor α (hERα); assay: competitive binding to cytoplasmic human estrogen receptor from recombinant CHO cells (α-binding); details: relative affinity (potency ratio), in percentage of the action of the reference compound in the assay; cytosol of recombinant CHO cells
Method: as §1

[4] = molecular target: T1, human estrogen β receptor (hERβ); assay: transactivation assay in recombinant CHO cells (rat oxytocin promoter, luciferase reporter), β; assay type: cell-based; details: potency ratio, in percentage of the action of the reference compound in the assay
Method: as §2, §3, §4, §5

T1 sequence (Q92731 whole entry): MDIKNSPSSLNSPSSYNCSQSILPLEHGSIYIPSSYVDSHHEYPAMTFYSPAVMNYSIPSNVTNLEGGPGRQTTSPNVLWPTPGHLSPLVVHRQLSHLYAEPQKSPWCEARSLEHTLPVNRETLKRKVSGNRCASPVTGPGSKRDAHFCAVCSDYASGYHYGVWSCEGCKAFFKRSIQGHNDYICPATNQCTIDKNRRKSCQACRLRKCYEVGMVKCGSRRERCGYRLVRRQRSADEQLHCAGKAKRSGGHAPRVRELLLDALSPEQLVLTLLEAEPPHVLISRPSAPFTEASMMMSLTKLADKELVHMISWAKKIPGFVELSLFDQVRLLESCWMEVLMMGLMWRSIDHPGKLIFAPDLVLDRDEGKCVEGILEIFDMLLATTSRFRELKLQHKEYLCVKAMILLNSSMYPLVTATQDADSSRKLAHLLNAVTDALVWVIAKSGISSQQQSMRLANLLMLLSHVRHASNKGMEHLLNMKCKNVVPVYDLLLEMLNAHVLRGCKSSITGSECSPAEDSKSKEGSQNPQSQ

Structure (SMILES): C#C[C@]1(O)CCC2C3CCC4=C(CC[C@@H](O)C4)C3[C@@H](CC=C)C[C@@]21C (stereo partly drawn) [Compound 11, (3α,11β,17β)-11-(2-propenyl)-19-norpregn-5(10)-en-20-yne-3,17-diol]
- β-binding [1]: 1.1 percentage
- α-transactivation [2]: 58 percentage
- α-binding. [3]: 57 percentage
- β-transactivation [4]: 0.8 percentage

Structure (SMILES): C#C[C@]1(O)CCC2C3CC[C@H]4C[C@@H](O)CCC4C3[C@@H](C(F)F)C[C@@]21C (stereo partly drawn) [Compound 21, (3β,5α,11β,17β)-11-difluoromethyl-19-norpregn-20-yne-3,17-diol]
- β-binding [1]: 0.2 percentage
- α-transactivation [2]: 7.7 percentage
- α-binding. [3]: 8.6 percentage
- β-transactivation [4]: 0.1 percentage

Structure (SMILES): C#C[C@]1(O)CCC2C3CC[C@H]4C[C@@H](O)CCC4C3[C@@H](CCF)C[C@@]21C (stereo partly drawn) [Compound 31, (3β,5α,11β,17β)-11-(2-fluoroethyl)-19-norpregn-20-yne-3,17-diol]
- β-binding [1]: 0.1 percentage
- α-transactivation [2]: 9.6 percentage
- α-binding. [3]: 37 percentage
- β-transactivation [4]: 0.2 percentage

Structure (SMILES): C#C[C@]1(O)CCC2C3CC[C@H]4C[C@H](O)CCC4C3[C@@H](CCF)C[C@@]21C (stereo partly drawn) [Compound 32, (3α,5α,11β,17β)-11-(2-fluoroethyl)-19-norpregn-20-yne-3,17-diol]
- β-binding [1]: <0.1 percentage
- α-transactivation [2]: 2.4 percentage
- α-binding. [3]: 2,6 percentage
- β-transactivation [4]: 0.1 percentage

Structure (SMILES): C#C[C@]1(O)CCC2C3CCC4=C(CC[C@@H](O)C4)C3[C@@H](CCC=C)C[C@@]21C (stereo partly drawn) [Compound 42, (3α,11β,17β)-11-(3-butenyl)-I9-norpregn-5(10)-en-20-yne-3,17-diol]
- β-binding [1]: 0.1 percentage
- α-transactivation [2]: 2 percentage
- α-binding. [3]: 29 percentage
- β-transactivation [4]: <0.04 percentage

Structure (SMILES): C#C[C@]1(O)CCC2C3CCC4=C(CC[C@H](O)C4)C3[C@@H](CCC=C)C[C@@]21C (stereo partly drawn) [Compound 43, (3β,11β,17β)-11-(3-butenyl)-19-norpregn-5(10)-en-20-yne-3,17-diol]
- β-binding [1]: 0.1 percentage
- α-transactivation [2]: 1.3 percentage
- α-binding. [3]: 11.9 percentage
- β-transactivation [4]: <0.1 percentage

Structure (SMILES): C#C[C@]1(O)CCC2C3C(C4=C(C[C@@H](O)CC4)C[C@H]3C)[C@@H](CCF)C[C@@]21C (stereo partly drawn) [Compound 54, (3β,7α,11β,17β)-11-(2-fluoroethyl)-7-methyl-19-norpregn-5(10)-en-20-yne-3,17-diol]
- β-binding [1]: 0.1 percentage
- α-transactivation [2]: 29.7 percentage
- α-binding. [3]: 27,5 percentage
- β-transactivation [4]: 1.0 percentage

Structure (SMILES): C#C[C@]1(O)CCC2C3C(C4=C(C[C@H](O)CC4)C[C@H]3C)[C@@H](CCF)C[C@@]21C (stereo partly drawn) [Compound 55, (3α,7α,11β,17β)-11-(2-fluoroethyl)-7-methyl-19-norpregn-5(10)-en-20-yne-3,17-diol]
- β-binding [1]: 0.1 percentage
- α-transactivation [2]: 61.5 percentage
- α-binding. [3]: 36 percentage
- β-transactivation [4]: 1.9 percentage

Structure (SMILES): C#C[C@]1(O)[C@H](C)CC2C3C(C(=C)C[C@@]21C)C1CC[C@H](O)C[C@@H]1C[C@H]3C (stereo partly shown) [Compound 81]
- α-transactivation [2]: 27 percentage
- β-transactivation [4]: 0.1 percentage
